Test results: US20220296534A1 (SOCIETE DES PRODUITS NESTLE S.A., priority 2019, published 2022)

Assays:
[1] = test system: INS-1 cells; experiment: Glucose stimulated insulin secretion (GSIS) in INS-1 cells, insulin by ELISA; assay type: cell-based, rat; conditions: FIG. 2
Protocol: INS-1 cellular model: The β pancreatic INS-1 cells were selected for their insulin secretion profile in response to glucose and to other physiological or pharmacological insulin secretagogues such as sulfonylureas and GLP-1. The cells were cultured in complete medium, RPMI 1640 11 mM glucose supplemented with 1 mM sodium pyruvate, 50 μM 2-mercaptoethanol, 2 mM glutamine, 10 mM HEPES, 100 IU/mL penicillin, 100 μg/mL streptomycin and 10% heat-inactivated foetal calf serum (FCS), as described by Asfari et al. (Endocrinology 130: 167-178, 1992). For the insulin secretion assay, INS-1 cells were plated and cultured in 96-well poly ornithine coated plates. The day before insulin secretion test, the medium were removed and replaced by RPMI 5 mM glucose supplemented with FCS 1%. The day of the insulin secretion test, the cells were washed with Krebs-Ringer Bicarbonate HEPES buffer (KRBH; pH 7.4) 0.1% BSA and pre-incubated for 30 min at 37° C. in KRBH 0.1% BSA containing 2.8 mM glucose. The cells were then washed again with KRBH and incubated with the tested ingredients for 60 min in KRBH 0.1% BSA containing glucose (5 or 16 mM). The supernatants were collected and frozen before insulin determination. The insulin concentration in the collected supernatants were measured by an ELISA kit according to the manufacturer recommendations and using a rat insulin antibody (Insulin rat high range ELISA Alpco Cat no 80-INSRTH-E10). Very briefly, rat monoclonal antibodies specific for insulin were immobilized to 96-well plates. Standards, samples and controls were added to the appropriate wells with a horseradish peroxidase enzyme-labeled monoclonal antibody (Conjugate). After incubation, the microplates were washed to remove unbound Conjugate and a TMB substrate solution was added to react with the bound Conjugate. Finally, after addition of a stop solution, the optical density was measured at 450 nm using a reference wavelength of 620 nm. The intensity of the yellow color is directly proportional to the amount of insulin within the samples. […]

[2] = humans; cited from earlier work
[3] = test system: human primary islets; experiment: Glucose stimulated insulin secretion in human primary islets, insulin by ELISA; assay type: cell-based; conditions: 1 μM, FIG. 3
Protocol: The insulin concentration in the collected supernatants were measured by an ELISA kit according to the manufacturer recommendations and using a rat insulin antibody (Insulin rat high range ELISA Alpco Cat no 80-INSRTH-E10). Very briefly, rat monoclonal antibodies specific for insulin were immobilized to 96-well plates. Standards, samples and controls were added to the appropriate wells with a horseradish peroxidase enzyme-labeled monoclonal antibody (Conjugate). After incubation, the microplates were washed to remove unbound Conjugate and a TMB substrate solution was added to react with the bound Conjugate. Finally, after addition of a stop solution, the optical density was measured at 450 nm using a reference wavelength of 620 nm. The intensity of the yellow color is directly proportional to the amount of insulin within the samples. Human primary islets: Human islets from non-diabetic deceased male donors were purchased from Tebu-bio (Le-Perray-en-Yvelines, France). […] Insulin in supernatants was determined with specific ELISA kits, according to the manufacturer's instructions (Ultrasensitive Insulin ELISA, ALPCO Diagnostics, Salem, USA). […] Insulin was measured in the cell lysates using specific ELISA kits (Ultrasensitive Insulin ELISA, ALPCO Diagnostics) and normalised to DNA content.

SMILES: O[C@H]1[C@H](O)[C@@H](O)[C@H](O)[C@@H](O)[C@@H]1O [scyllo-inositol, (1r,2r,3r,4r,5r,6r)-Cyclohexane-1,2,3,4,5,6-hexol]
- glucose stimulated insulin secretion (GSIS), expressed as a percentage versus glucose ([1]; 20 μM scyllo-inositol): 120%
- glucose stimulated insulin secretion (GSIS), expressed as a percentage versus glucose ([1]; 2000 μM scyllo-inositol): 142%
- concentration at which GSIS reaches a plateau ([1]; doses from 20 to 2000 μM): 1000 to 2000 µM
- mean time to reach the maximum level after ingestion [2]: about 3.8 h
- effect on insulin secretion over the control condition (5 mM glucose) [3]: synergistic effect
